Measured values reported in patent publication US8258098B2, “Antitumoral treatments” (Pharma Mar, S.A., priority 2006, dated 2012).

Experiments:
[1] = test system: K562 cell line; experiment: MTS assay with CalcuSyn combination index, leukemia; assay type: cell-based; conditions: Homo sapiens, K562, read-out: IC50 (Molar)
Method: (§1) These cell lines were cultured in RPMI1640 medium with 10% FBS and 2 mM L-Glutamine. Each cell line was plated in a 96 well plates at 20,000 cell per well.
(§2) Each serial dilution was paired with 4 different concentrations of Idarubicin.
(§3) The plates were incubated for 3 days at 37° C. and 5% CO2. The plates were read using the Promega MTS assay system with MTS being metabolized by living cells turning into formazan which is […] at 490 nm wavelength. This is an indirect measure of cell viability. These were analyzed using the Softmax Pro program which determines cell viability based percent of control wells. This IC50 data was then transferred into the CalcuSyn program for combination index analysis. CalcuSyn compares IC50 the values of the drugs alone with that of the drugs in combination using an algorithm to determine a combination index.

[2] = test system: MOLT4 cell line; experiment: as above; assay type: cell-based; conditions: Homo sapiens, MOLT-4, read-out: IC50 (Molar)
Method: as §1, §2, §3

- IC50 [1]: 63.3 nM
- IC50 [2]: 0.05 nM
SMILES: CC(=O)[C@]1(O)Cc2c(O)c3c(c(O)c2[C@@H](O[C@H]2C[C@H](N)[C@H](O)[C@H](C)O2)C1)C(=O)c1ccccc1C3=O [Idarubicin]
